Experimental data taken from US9163256B2, “Mutant receptors and their use in a nuclear receptor-based inducible gene expression system” (priority 2004, dated 2015).
Where “and” joins values, the source holds several entries; their conditions need not be identical. Equal values may be shown once. Read-outs that look alike come from different tables or passages of the source.

Tests used:
[1] = target: CfEcR-DEF mutant A110P (Choristoneura fumiferana, UniProt O77255, A393P); experiment: cell-based
Method: (§1) This construct was prepared in the same way as in switch 1.1 above except wild-type CfEcR-DEF was replaced with mutant CfEcR-DEF comprising a ligand binding domain comprising a substitution mutation selected from Table 1 below.
(§2) DNAs were transfected into mouse NIH3T3 cells (ATCC) as follows. Standard methods for culture and maintenance of the cells were followed. Cells were harvested and plated 96-well plates at 2,500 cells per well, in 50 μL of growth medium containing 10% fetal bovine serum (FBS). Twenty-four hours later, the cells were treated with 35 μL of serum-free growth medium containing either dimethylsulfoxide (DMSO; control) or a DMSO solution of ligand. The cells were then transfected using Superfect (Qiagen Inc.) transfection reagent. For each well, 0.625 μL of Superfect was mixed with 14.2 μL of serum-free growth medium. 0.16 μg of reporter construct and 0.04 μg of each receptor construct were added to the transfection reagent mix. The contents of the transfection mix were mixed in a vortex mixer and let stand at room temperature for 30 minutes. At the end of incubation, 15 μL of transfection mix was added to the cells. The cells were maintained at 37° C. and 5% CO2 for 48 hours in 5% FBS.
(§3) Reporter Assays: Cells were harvested 40 hours after adding ligands. 125 μL of passive lysis buffer (part of Dual-Luciferase reporter assay system from Promega Corporation) were added to each well of the […] plate. The plates were placed on a rotary shaker for 15 minutes. Twenty μL of lysate were assayed. Luciferase activity was measured using Dual-Luciferase reporter assay system from Promega Corporation following the manufacturer's instructions. Fold induction (FI) activities were calculated by dividing relative light units (“RLU”) in ligand treated cells with RLU in DMSO treated cells (untreated control).

[2] = target: CfEcR-DEF mutant F48L (Choristoneura fumiferana, UniProt O77255, F331L); experiment: cell-based
Method: as §1, §2, §3

[3] = target: CfEcR-DEF mutant L234M (Choristoneura fumiferana, UniProt O77255, L517M); experiment: cell-based
Method: as §1, §2, §3

[4] = target: CfEcR-DEF mutant M125R (Choristoneura fumiferana, UniProt O77255, M408R); experiment: cell-based
Method: as §1, §2, §3

[5] = target: CfEcR-DEF mutant M92L (Choristoneura fumiferana, UniProt O77255, M375L); experiment: cell-based
Method: as §1, §2, §3

[6] = target: CfEcR-DEF mutant T52E (Choristoneura fumiferana, UniProt O77255, T335E); experiment: cell-based
Method: as §1, §2, §3

[7] = target: CfEcR-DEF mutant A110N (Choristoneura fumiferana, UniProt O77255, A393N); experiment: cell-based
Method: as §1, §2, §3

[8] = target: CfEcR-DEF mutant F109M (Choristoneura fumiferana, UniProt O77255, F392M); experiment: cell-based
Method: as §1, §2, §3

[9] = target: CfEcR-DEF mutant F48W (Choristoneura fumiferana, UniProt O77255, F331W); experiment: cell-based
Method: as §1, §2, §3

[10] = target: CfEcR-DEF mutant F48Y (Choristoneura fumiferana, UniProt O77255, F331Y); experiment: cell-based
Method: as §1, §2, §3

[11] = target: CfEcR-DEF mutant T52P (Choristoneura fumiferana, UniProt O77255, T335P); experiment: cell-based
Method: as §1, §2, §3

[12] = target: CfEcR-DEF mutant V128F (Choristoneura fumiferana, UniProt O77255, V411F); experiment: cell-based
Method: as §1, §2, §3

[13] = target: CfEcR-DEF mutant V96E (Choristoneura fumiferana, UniProt O77255, V379E); experiment: cell-based
Method: as §1, §2, §3

[14] = target: CfEcR-DEF mutant W238E (Choristoneura fumiferana, UniProt O77255, W521E); experiment: cell-based
Method: as §1, §2, §3

[15] = target: CfEcR-DEF mutant Y120M (Choristoneura fumiferana, UniProt O77255, Y403M); experiment: cell-based
Method: as §1, §2, §3

[16] = target: CfEcR-DEF mutant V107I/Y127E/G (Choristoneura fumiferana, UniProt O77255, INS541G/V390I/Y410E); experiment: GAL4-driven luciferase reporter assay in NIH3T3 cells; assay type: cell-based
Method: as §1
The Gal-4-CfEcR-DEF(VYG) mutant was created by inserting an extra glycine at the C-terminal end of EcR substitution mutant V107I/Y127E [CfECR(VY)] by PCR. Essentially, this was done in two steps: PCR-amplification of CfEcR-DEF(VYG) and substitution of the CfEcR(VY) in the vector GAL4-CfEcR DEF(VY) pBIND 1-9 with the PCR-amplified CfEcR-DEF(VYG). The CfEcR-DEF region (with the extra glycine) was amplified by using the vector GAL4-CfEcR DEF(VY) pBIND 1-9 as template and the following PCR primers: […]
as §2, §3

[17] = target: CfEcR-DEF mutant L132M (Choristoneura fumiferana, UniProt O77255, L415M); experiment: cell-based; assay type: cell-based; settings: NIH3T3, 40 h, read-out: Rel Max FI, mutant L132M
Method: as §1, §2, §3

[18] = NIH3T3, 40 h, read-out: Rel Max FI

Chain of CfEcR-DEF mutant V128F (P28702 299-449): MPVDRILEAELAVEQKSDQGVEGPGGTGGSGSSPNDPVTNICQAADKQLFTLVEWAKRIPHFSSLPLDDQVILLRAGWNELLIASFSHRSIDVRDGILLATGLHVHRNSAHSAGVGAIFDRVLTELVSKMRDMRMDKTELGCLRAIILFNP
Chain of CfEcR-DEF mutant V128F (O77255 entry or part of it V411F): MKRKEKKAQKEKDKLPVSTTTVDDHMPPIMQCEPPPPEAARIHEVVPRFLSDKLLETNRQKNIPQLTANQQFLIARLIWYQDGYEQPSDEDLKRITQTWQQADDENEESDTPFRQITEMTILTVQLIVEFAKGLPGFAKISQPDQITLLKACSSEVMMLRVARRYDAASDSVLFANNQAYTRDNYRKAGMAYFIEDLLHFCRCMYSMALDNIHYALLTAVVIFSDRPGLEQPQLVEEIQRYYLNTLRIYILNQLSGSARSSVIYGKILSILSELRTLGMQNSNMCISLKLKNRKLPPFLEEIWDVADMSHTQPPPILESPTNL
Chain of CfEcR-DEF mutant A110P (O77255 entry or part of it A393P): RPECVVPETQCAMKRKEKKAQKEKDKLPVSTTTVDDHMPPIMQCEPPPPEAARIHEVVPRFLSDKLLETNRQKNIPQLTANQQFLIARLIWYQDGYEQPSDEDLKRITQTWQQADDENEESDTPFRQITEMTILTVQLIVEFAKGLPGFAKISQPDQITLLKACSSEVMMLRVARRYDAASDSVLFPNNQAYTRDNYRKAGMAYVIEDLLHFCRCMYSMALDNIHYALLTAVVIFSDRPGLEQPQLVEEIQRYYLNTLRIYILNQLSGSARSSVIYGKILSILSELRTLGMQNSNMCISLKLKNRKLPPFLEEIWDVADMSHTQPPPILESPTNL
Chain of CfEcR-DEF mutant A110P (P28702 299-449, stated change not applied, further chain): as the sequence (P28702 299-449) above
Chain of CfEcR-DEF mutant W238E (P28702 299-449): as above
Chain of CfEcR-DEF mutant W238E (O77255 entry or part of it W521E): as the sequence (O77255 entry or part of it V411F) above, with F193V, W303E counted along it
Chain of CfEcR-DEF mutant F48W (P28702 299-449): as the sequence (P28702 299-449) above
Chain of CfEcR-DEF mutant F48W (O77255 entry or part of it F331W): as the sequence (O77255 entry or part of it A393P) above, with F125W, P187A counted along it
Chain of CfEcR-DEF mutant M125R (P28702 299-449): as the sequence (P28702 299-449) above
Chain of CfEcR-DEF mutant M125R (O77255 entry or part of it M408R): as the sequence (O77255 entry or part of it V411F) above, with M190R, F193V counted along it
Chain of CfEcR-DEF mutant V107I/Y127E/G (P28702 299-449, stated change not applied): as the sequence (P28702 299-449) above
Chain of CfEcR-DEF mutant V107I/Y127E/G (O77255 entry or part of it V390I/Y410E/INS541G): as the sequence (O77255 entry or part of it V411F) above, with F193V counted along it
Chain of CfEcR-DEF mutant F48L (P28702 299-449): as the sequence (P28702 299-449) above
Chain of CfEcR-DEF mutant F48L (O77255 entry or part of it F331L): as the sequence (O77255 entry or part of it V411F) above, with F113L, F193V counted along it
Chain of CfEcR-DEF mutant L234M (P28702 299-449): as the sequence (P28702 299-449) above
Chain of CfEcR-DEF mutant L234M (O77255 entry or part of it L517M): as the sequence (O77255 entry or part of it A393P) above, with P187A, L311M counted along it
Chain of CfEcR-DEF mutant M92L (O77255 entry or part of it M375L): as the sequence (O77255 entry or part of it V411F) above, with M157L, F193V counted along it
Chain of CfEcR-DEF mutant M92L (P28702 299-449, further chain): as the sequence (P28702 299-449) above
Chain of CfEcR-DEF mutant Y120M (O77255 entry or part of it Y403M): as the sequence (O77255 entry or part of it V411F) above, with Y185M, F193V counted along it
Chain of CfEcR-DEF mutant Y120M (P28702 299-449, further chain): as the sequence (P28702 299-449) above
Chain of CfEcR-DEF mutant T52P (P28702 298-449): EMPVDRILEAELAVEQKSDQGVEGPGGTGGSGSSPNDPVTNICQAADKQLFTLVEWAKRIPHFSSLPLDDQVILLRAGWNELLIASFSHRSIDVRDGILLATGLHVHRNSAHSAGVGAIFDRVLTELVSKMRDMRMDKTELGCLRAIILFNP
Chain of CfEcR-DEF mutant T52P (O77255 entry or part of it T335P): as the sequence (O77255 entry or part of it A393P) above, with T129P, P187A counted along it
Chain of CfEcR-DEF mutant A110N (O77255 entry or part of it A393N): as the sequence (O77255 entry or part of it A393P) above, with P187N counted along it
Chain of CfEcR-DEF mutant A110N (P28702 299-449, stated change not applied, further chain): as the sequence (P28702 299-449) above
Chain of CfEcR-DEF mutant F48Y (O77255 entry or part of it F331Y): as the sequence (O77255 entry or part of it A393P) above, with F125Y, P187A counted along it
Chain of CfEcR-DEF mutant F48Y (P28702 299-449, further chain): as the sequence (P28702 299-449) above
Chain of CfEcR-DEF mutant T52E (O77255 entry or part of it T335E): as the sequence (O77255 entry or part of it V411F) above, with T117E, F193V counted along it
Chain of CfEcR-DEF mutant T52E (P28702 299-449, further chain): as the sequence (P28702 299-449) above
Chain of CfEcR-DEF mutant V96E (O77255 entry or part of it V379E): as the sequence (O77255 entry or part of it V411F) above, with V161E, F193V counted along it
Chain of CfEcR-DEF mutant V96E (P28702 299-449, further chain): as the sequence (P28702 299-449) above
Chain of CfEcR-DEF mutant L132M (O77255 entry or part of it L415M): as the sequence (O77255 entry or part of it A393P) above, with P187A, L209M counted along it
Chain of CfEcR-DEF mutant L132M (P28702 298-449, further chain): as the sequence (P28702 298-449) above
Chain of CfEcR-DEF mutant F109M (O77255 entry or part of it F392M): as the sequence (O77255 entry or part of it A393P) above, with F186M, P187A counted along it
Chain of CfEcR-DEF mutant F109M (P28702 299-449, further chain): as the sequence (P28702 299-449) above

Compound: CCc1cccc(C(=O)NN(C(=O)c2cc(C)cc(C)c2)C(C)(C)C)c1C [RG-101691, 3,5-Dimethyl-benzoic acid N-tert-butyl-N′-(3-ethyl-2-methyl-benzoyl)-hydrazide]
- EC50 [1]: 0.67 µM
- Emax [1, 18]: 89%
- EC50 [2]: 0.3 µM
- Emax [2, 18]: 81%
- EC50 [3]: 1.79 µM
- Emax [3, 18]: 77%
- EC50 [4]: ~10 µM
- Emax [4, 18]: 1%
- EC50 [5]: 9.9 µM
- Emax [5, 18]: 41%
- EC50 [6]: ~7 µM
- Emax [6, 18]: 57%
- EC50 [7]: 0.88 µM
- Emax [7, 18]: 99%
- EC50 [8]: 0.65 µM
- Emax [8, 18]: 75%
- EC50 [9]: 1.53 µM
- Emax [9, 18]: 74%
- EC50 [10]: 0.93 µM
- Emax [10, 18]: 69%
- EC50 [11]: > 33 µM
- Emax [11, 18]: 2%
- EC50 ([12]; EC50, mutant V128F): ~8.3 µM and 5.4 µM
- Emax [12, 18]: 4%
- EC50 [13]: 1.62 µM
- Emax [13, 18]: 81%
- EC50 [14]: ~8 µM
- Emax [14, 18]: 71%
- EC50 [15]: ~10 µM
- Emax [15, 18]: 30%
- EC50 [16]: 0.02 µM
- Emax [16, 18]: 85%
- Emax [17]: 8%
- Emax ([17]; relative to max fold induction of GS-E ligand): 77%
